For orientation: MIC means the lowest concentration found to suppress growth.

≈ marks a conversion by molar mass, not a printed value.

Experimental findings from ChEMBL document CHEMBL3779863, “Ionic liquid-promoted one-pot synthesis of thiazoleimidazo[2,1-b][1,3,4]thiadiazole hybrids and their antitubercular activity” (Medchemcomm, 2016) are described below.

One data set relates to Pseudomonas aeruginosa. Nature of the data set: Antibacterial activity against Pseudomonas aeruginosa ATCC 27853 after 12 hrs by serial plate dilution method. The class given is functional. The settings on record: ATCC 27853, 12 h.
The next data set relates to Escherichia coli. Kind of data set: Antibacterial activity against Escherichia coli ATCC 25922 after 12 hrs by serial plate dilution method. The class given is functional. Particulars: ATCC 25922, 12 h.
Another data set has as its system Staphylococcus aureus. Nature of the data set: Antibacterial activity against Staphylococcus aureus ATCC 25923 after 12 hrs by serial plate dilution method. It counts as functional. The settings on record: ATCC 25923, 12 h.
Data set [1] is described as follows: Cytotoxicity against mouse NIH/3T3 cells assessed as cell growth inhibition at 50 ug/mL after 48 hrs by MTT assay. The class given is cell-based, NIH3T3. Particulars: read-out: GI.
The test system of data set [2] is Mycobacterium tuberculosis. Kind of data set: Antimycobacterial activity against Mycobacterium tuberculosis H37Rv after 5 days by fluorescence analysis. Particulars: 120 h. The class given is functional.

Take `COc1ccc(-c2nc3sc(C)nn3c2/C=N/Nc2nc(-c3ccc(F)cc3)cs2)cc1`: the MIC with Pseudomonas aeruginosa, in the data set on Escherichia coli and in the data set on Staphylococcus aureus was 50 µg/mL (≈ 108 µM) in each case.

In the case of `FC(F)(F)c1nn2c(/C=N/Nc3nc(-c4ccc(Cl)cc4)cs3)c(-c3ccc(Cl)cc3)nc2s1`, the figures for the MIC in the data set with Pseudomonas aeruginosa, against Escherichia coli and against Staphylococcus aureus were 50 µg/mL (≈ 92.7 µM), 12.5 µg/mL (≈ 23.2 µM) and 12.5 µg/mL (≈ 23.2 µM), respectively.

Turning to `COc1ccc(-c2csc(N/N=C/c3c(-c4ccc(OC)cc4)nc4sc(C)nn34)n2)cc1`, the MIC in the data set with Pseudomonas aeruginosa was determined as 50 µg/mL (≈ 105 µM); in the data set with Escherichia coli, 12.5 µg/mL (≈ 26.2 µM); in the data set on Staphylococcus aureus, 50 µg/mL (≈ 105 µM).

With `Cc1ccc(-c2csc(N/N=C/c3c(-c4ccc(Cl)cc4)nc4sc(C(F)(F)F)nn34)n2)cc1`, the MIC in the data set on Pseudomonas aeruginosa, in the data set with Escherichia coli and in the data set with Staphylococcus aureus was 25 µg/mL (≈ 48.2 µM) throughout. In addition, the inhibition at 48 h, 50 ug/mL in data set [1] turned out to be 19.6%.

For the molecule `Cc1ccc(-c2csc(N/N=C/c3c(-c4ccc(C)cc4)nc4sc(C)nn34)n2)cc1`, the minimum inhibitory concentration (MIC) against Pseudomonas aeruginosa is 25 µg/mL (≈ 56.2 µM); with Escherichia coli it was 50 µg/mL (≈ 112 µM); against Staphylococcus aureus, 50 µg/mL (≈ 112 µM).

As for `COc1ccc(-c2nc3sc(C(F)(F)F)nn3c2/C=N/Nc2nc(-c3ccc(C)cc3)cs2)cc1`, the MIC against Pseudomonas aeruginosa was 25 µg/mL (≈ 48.6 µM); against Escherichia coli, 25 µg/mL (≈ 48.6 µM); in the data set on Staphylococcus aureus, 50 µg/mL (≈ 97.2 µM). Also, the inhibition at 48 h, 50 ug/mL in data set [1] was 18.4%.

Regarding `Fc1ccc(-c2csc(N/N=C/c3c(-c4ccc(Cl)cc4)nc4sc(C(F)(F)F)nn34)n2)cc1`, the MIC against Pseudomonas aeruginosa is 6.25 µg/mL (≈ 12 µM); in the data set with Escherichia coli, 6.25 µg/mL (≈ 12 µM); against Staphylococcus aureus it was 12.5 µg/mL (≈ 23.9 µM). In data set [1], the inhibition at 48 h, 50 ug/mL worked out at 15.9%.

Regarding `COc1ccc(-c2csc(N/N=C/c3c(-c4ccc(C)cc4)nc4sc(C)nn34)n2)cc1`, the MIC worked out at 25 µg/mL (≈ 54.3 µM) against Pseudomonas aeruginosa, 50 µg/mL (≈ 109 µM) against Escherichia coli and 50 µg/mL (≈ 109 µM) in the data set on Staphylococcus aureus.

On to `COc1ccc(-c2nc3sc(C(F)(F)F)nn3c2/C=N/Nc2nc(-c3ccc(F)cc3)cs2)cc1`, for which the minimum inhibitory concentration (MIC) turned out to be 25 µg/mL (≈ 48.2 µM) against Pseudomonas aeruginosa, 50 µg/mL (≈ 96.4 µM) against Escherichia coli and 50 µg/mL (≈ 96.4 µM) in the data set with Staphylococcus aureus. In data set [1], the inhibition at 48 h, 50 ug/mL worked out at 18.9%.

On to `COc1ccc(-c2csc(N/N=C/c3c(-c4ccc(Cl)cc4)nc4sc(C(F)(F)F)nn34)n2)cc1`, for which the MIC is 25 µg/mL (≈ 46.7 µM) against Pseudomonas aeruginosa, 12.5 µg/mL (≈ 23.4 µM) in the data set on Escherichia coli and 25 µg/mL (≈ 46.7 µM) with Staphylococcus aureus. Further, the inhibition at 48 h, 50 ug/mL in data set [1] was 14.7%.

As to `Cc1ccc(-c2csc(N/N=C/c3c(-c4ccc(Cl)cc4)nc4sc(C)nn34)n2)cc1`, the MIC with Pseudomonas aeruginosa, against Escherichia coli and with Staphylococcus aureus was 50 µg/mL (≈ 108 µM) each time.

As for `Cc1ccc(-c2nc3sc(C)nn3c2/C=N/Nc2nc(-c3ccc([N+](=O)[O-])cc3)cs2)cc1`, the MIC against Pseudomonas aeruginosa came out at 12.5 µg/mL (≈ 26.3 µM); against Escherichia coli, 6.25 µg/mL (≈ 13.1 µM); in the data set on Staphylococcus aureus, 12.5 µg/mL (≈ 26.3 µM). Besides, the inhibition at 48 h, 50 ug/mL in data set [1] was determined as 23.3%.

Regarding `COc1ccc(-c2csc(N/N=C/c3c(-c4ccc(Cl)cc4)nc4sc(C)nn34)n2)cc1`, the minimum inhibitory concentration (MIC) was 50 µg/mL (≈ 104 µM) with Pseudomonas aeruginosa, 25 µg/mL (≈ 52 µM) with Escherichia coli and 50 µg/mL (≈ 104 µM) against Staphylococcus aureus. Besides, the inhibition at 48 h, 50 ug/mL in data set [1] turned out to be 20.8%.

`Cc1ccc(-c2nc3sc(C)nn3c2/C=N/Nc2nc(-c3ccc(F)cc3)cs2)cc1`: the minimal inhibitory concentration (MIC) in the data set with Pseudomonas aeruginosa, in the data set with Escherichia coli and against Staphylococcus aureus was 50 µg/mL (≈ 111 µM) in each case. For the same molecule, the inhibition at 48 h, 50 ug/mL in data set [1] turned out to be 22.3%.

On to `Cc1nn2c(/C=N/Nc3nc(-c4ccc(Cl)cc4)cs3)c(-c3ccc(Cl)cc3)nc2s1`, for which the MIC in the data set on Pseudomonas aeruginosa, in the data set on Escherichia coli and in the data set on Staphylococcus aureus was 25 µg/mL (≈ 51.5 µM) each time.

For the molecule `COc1ccc(-c2nc3sc(C)nn3c2/C=N/Nc2nc(-c3ccc(C)cc3)cs2)cc1`, the minimum inhibitory concentration (MIC) with Pseudomonas aeruginosa, in the data set with Escherichia coli and in the data set with Staphylococcus aureus was 50 µg/mL (≈ 109 µM) each time.

Regarding `O=[N+]([O-])c1ccc(-c2csc(N/N=C/c3c(-c4ccc(Cl)cc4)nc4sc(C(F)(F)F)nn34)n2)cc1`, the figures for the MIC with Pseudomonas aeruginosa, with Escherichia coli and in the data set on Staphylococcus aureus were 25 µg/mL (≈ 45.5 µM), 12.5 µg/mL (≈ 22.7 µM) and 12.5 µg/mL (≈ 22.7 µM), respectively.

As for `Cc1ccc(-c2nc3sc(C)nn3c2/C=N/Nc2nc(-c3ccc(Cl)cc3)cs2)cc1`, the MIC with Pseudomonas aeruginosa, against Escherichia coli and against Staphylococcus aureus was 50 µg/mL (≈ 108 µM) each time.

On to `Cc1nn2c(/C=N/Nc3nc(-c4ccc(F)cc4)cs3)c(-c3ccc(Cl)cc3)nc2s1`, for which the minimum inhibitory concentration (MIC) worked out at 50 µg/mL (≈ 107 µM) in the data set on Pseudomonas aeruginosa, 25 µg/mL (≈ 53.3 µM) in the data set with Escherichia coli and 25 µg/mL (≈ 53.3 µM) with Staphylococcus aureus.

Regarding `COc1ccc(-c2nc3sc(C(F)(F)F)nn3c2/C=N/Nc2nc(-c3ccc(Cl)cc3)cs2)cc1`, the MIC in the data set on Pseudomonas aeruginosa, in the data set with Escherichia coli and in the data set on Staphylococcus aureus was 50 µg/mL (≈ 93.5 µM) throughout.

Take `COc1ccc(-c2nc3sc(C)nn3c2/C=N/Nc2nc(-c3ccc(Cl)cc3)cs2)cc1`: the minimal inhibitory concentration (MIC) in the data set on Pseudomonas aeruginosa was 12.5 µg/mL (≈ 26 µM); with Escherichia coli, 6.25 µg/mL (≈ 13 µM); with Staphylococcus aureus, 12.5 µg/mL (≈ 26 µM). In addition, the inhibition at 48 h, 50 ug/mL in data set [1] was found to be 12.7%.

With `COc1ccc(-c2nc3sc(C)nn3c2/C=N/Nc2nc(-c3ccc([N+](=O)[O-])cc3)cs2)cc1`, the MIC in the data set on Pseudomonas aeruginosa, in the data set on Escherichia coli and with Staphylococcus aureus was 25 µg/mL (≈ 50.9 µM) in each case.

`COc1ccc(-c2csc(N/N=C/c3ccc4c(c3)c3ccccc3n4C)n2)cc1OC` came in with a minimum inhibitory concentration (MIC) in data set [2] of 21 µM (≈ 9.29 µg/mL).

Take `COc1ccc(-c2csc(N/N=C/c3c(-c4ccc(OC)cc4)nc4sc(C(F)(F)F)nn34)n2)cc1`: the values for the MIC in the data set on Pseudomonas aeruginosa, against Escherichia coli and in the data set on Staphylococcus aureus were 25 µg/mL (≈ 47.1 µM), 12.5 µg/mL (≈ 23.6 µM) and 25 µg/mL (≈ 47.1 µM), respectively.
